Non-standard residues stand in square brackets, D forms with d. No end group written: not given here. Hyp = O=C(O)[C@@H]1C[C@@H](O)CN1

Assay [1] has as its system phenol red excretion in trachea. As to the kind of experiment: Expectorant experiment, phenol red excretion method. The class given is in vivo, mice. The note with it: Positive control, 0.15 g/kg intragastric, 5 days. On the procedure:
50 Mice were randomly divided into 5 groups according to body weight: Normal saline, negative control group, ammonium chloride positive control group and high, medium and low dose of test drug (either Compound A, above, or Compound E, below). 10 mice in each group, 5 males and 5 females.
Compound A was administered via atomization inhalation (0.15 mL/min) for 1 min, once daily for 5 days and the positive control drug was administered by intragastric administration for 5 days.
Half an hour after the last administration of Compound A, 5% phenol red solution was injected into the abdominal cavity. The mice were sacrificed after a further half an hour. The skin of the neck was removed and the trachea from the thyroid cartilage to the bifurcation was separated, soaked it in 5% sodium bicarbonate solution with constant shaking. The sodium bicarbonate solution was used to detect the phenol red content.
The absorbance at 558 nm was detected by spectrophotometry (721G Spectrophotometer, Shanghai Jingke, Shanghai, China). The optical density value was used to calculate the phenol red content In the trachea by reference to the phenol red standard curve. The results of each group and the negative control group were tested for significant t-test.

For assay [2], the system named is diabetic skin wound. The experiment in a line: Diabetic wound model I. The class given is in vivo, db/db mice (C57BL/KsJ-db/db). To be noted: histology. On the procedure: A similar experiment with essentially the same protocol to that described in Example 6 above was carried out on 8 to 12 week-old male db/db mice (C57BL/KsJ-db/db), with a body weight of 35-45 g/mouse (Changzhou Cvens Experimental Animal Co. Ltd.).
An EMS skin biopsy punch with a 18 mm diameter was used to make wounds.
Different drugs were administrated topically at 50 μL/wound, once daily from Day 0 to Day 12. The model group was given same amount of normal saline.
Photographs were taken for each wound every other day from Day 0. Photos were scanned into a computer, and wound areas calculated using ImageJ image analysis software (National Institute of Health, USA).
The unhealed wound area was expressed as a percentage of the original wound area: At/A0×100%, where A0 and At refer to the initial area at Day 0 and the wound area at the date of measurement (time t), respectively.
Histological specimens were analyzed and skin regeneration, fibroblast proliferation, collagen regeneration scores (Masson score) and inflammation scores were estimated as follows.
The HE and Masson stained slices were observed under an optical microscope and were scored (1, 2 or 3 points) according to the following criteria. […]

Assay [3] deals with xylene induced ear swelling. The experiment in a line: Mouse ear swelling model I (xylene). The class given is in vivo, BALB/c mice. The note with it: xylene on right ear, topical treatment, 40 minutes; (right ear weight−left ear weight)/left ear weight.
Experimental: The mice were randomly divided into 7 groups as described in Table 1 below, with 5 mice in each group
The left ear of each mouse was used as autologous control. 20 μL of xylene (Shanghai Aladdin Bio-Chem Technology Co., Ltd., Shanghai, China) was applied to the right ear of each mouse, both inside and outside. The ear started to swell in about 4 minutes. Then, 0.08 g of each study treatments or vehicles were applied to the right ears in each group. The mice were put back into their cages.
Vehicle-1 in Table 1 below is the cream base without active ingredients. Vehicle-2 in Table 1 below is the gel base without active ingredients.
The mice were sacrificed by cervical dislocation after 40 minutes. The left and right ears were cut off. A skin pouch (Electron Microscopy Sciences, Hatfield, Pa., USA) with a diameter of 8 mm was used to take a piece of the ear from the same site of both ears.
For assay [4], the system named is diabetic skin wound. As to the kind of experiment: Diabetic wound model II. The class given is in vivo, db/db mice (C57BL/KsJ-db/db). The method, then: A similar experiment with essentially the same protocol to that described in Example 7 above was carried out on 8 to 12 week-old male db/db mice (C57BL/KsJ-db/db) with a body weight of 35-45 g/mouse (Changzhou Cvens Experimental Animal Co. Ltd.).
Different concentrations of Compound A and Compound 1 (“A” and “1” respectively, as indicated in the Table 5 below) were prepared in substantially the same way as described in Examples 6 and 7 above.
Different drugs were administrated topically at 50 μL/wound, once daily from Day 0 to Day 12, as show in Table 5 below.
The model group was given same amount of normal saline. There were 8 mice in each group. 4 mice were in the control group. The skin pieces taken during wound creation were used as the samples at Day 7 for the control group.
Histological specimens were analyzed as described in Example 7 above, except that the collagen deposition score criterion for the Masson stained sample were as follows. A comparison was made with normal tissue. No clear blue staining was given 0 points; blue fiber appearing in a scattered pattern was scored as 1 points; if more blue fiber appeared, this was scored as 2 points, and a diffuse blue colour was given 3 points.

As for `Cl.N` [NH4Cl, ammonium chloride], the “Phenol red concentration” value in assay [1] was 10.335 ± 0.337 µg/mL.
Turning to “Ala-Lys-Pro-Ser-Tyr-Hyp-Hyp-Thr-Tyr-Lys (AKPSY[Hyp][Hyp]TYK; not fully specified; printed as Ala-Lys-Pro-Ser-Tyr-Hyp-Hyp-Thr-Tyr-Lys) [Compound 1]”, in assay [2], the Fibroblast proliferation score result is given as “could promote”. In addition, in assay [2], the Skin regeneration score result is on record as “could promote the skin regeneration”. Moreover, the Swelling rate in assay [3] is given as 61.5%. For the same molecule, the “ratio of remaining wound area of initial wound (Mean)” value in assay [4] (high dose (H), D1) came out at 1.000; in assay [4] (high dose (H), D2), 1.051; in assay [4] (high dose (H), D4) it was 0.821; in assay [4] (high dose (H), D6), 0.718; in assay [4] (high dose (H), D8) it was 0.486; in assay [4] (high dose (H), D10) it was 0.478. The “ratio of remaining wound area of initial wound (Mean)” value came out at 0.368 in assay [4] (high dose (H), D12); 1.000 in assay [4] (low dose (L), D1); 0.860 in assay [4] (low dose (L), D2); 0.753 in assay [4] (low dose (L), D4); 0.593 in assay [4] (low dose (L), D6); 0.467 in assay [4] (low dose (L), D8). Moreover, the “ratio of remaining wound area of initial wound (Mean)” value in assay [4] (low dose (L), D10) is recorded as 0.433; in assay [4] (low dose (L), D12), 0.306; in assay [4] (medium dose (M), D1), 1.000; in assay [4] (medium dose (M), D2), 0.991; in assay [4] (medium dose (M), D4), 0.895; in assay [4] (medium dose (M), D6), 0.786. Besides, the “ratio of remaining wound area of initial wound (Mean)” value turned out to be 0.552 in assay [4] (medium dose (M), D8); 0.490 in assay [4] (medium dose (M), D10); 0.344 in assay [4] (medium dose (M), D12). Moreover, the wound healing result in assay [4] (low dose, earlier stages after wound infliction) is “prompted wound healing in the earlier stages”.

The values are drawn from patent publication US11680082B2, “Conjugates of montelukast and peptides” (ENLITISA (SHANGHAI) PHARMACEUTICAL CO., LTD, priority 2018, dated 2023).
